Reference: patent US9024022B2, “Substrates of O6-alkylguanine-DNA alkyltransferase and mutants thereof” (Cis Bio International, priority 2008, dated 2015)

Target: T1, N-AGT enzyme (AGT-mGluR2 fusion protein) (Homo sapiens, UniProt P16455)
T1 construct: fused on or other part: type 2 metabotropic glutamate receptor (mGluR2)
Experiment: Enzymatic reactivity test in a cell model, N-AGT mutant
Type: cell-based
Conditions: living cells, N-AGT mutant; labeling 1 h at 37° C.; read-out: half saturation concentration of the enzyme
Protocol: This procedure makes it possible to test the reactivity of substrates according to the invention with an AGT expressed by COS 7 cells in the form of a fusion protein with the type 2 glutamate transmembrane receptor (mGluR2).
Various mutants of AGT were analyzed in this study: SNAP-tag-ST26 or CLIP-tag from Covalys or the N-AGT mutant described by Gronemeyer et al. (Protein Engineering, Design & Selection, Vol. 19, No. 7, pp. 309-316, 2006).
The transient transfection of the cells is carried out by electroporation using a Biorad electroporator: 10 million cells are transfected by 1 μg SNAP-tag-mGluR2+3 μg pcdna3.1 in a final volume of 300 μl. The electroporation parameters are: 280 V & 1000 μF. […]
The labeling of the AGT-mGluR2 fusion protein takes place in 100 μl of complete medium with increasing concentrations of BG-fluorophore or BG-L1-A-L2-fluorophore according to the invention for 1 h at 37° C. Before the reading, 4 washing operations are carried out with 100 μl of Tris-Krebs.
For the substrates bearing fluorophores ATTO647 (example 2), DY647 (examples 1 and 5) and fluorescein-5-EX (example 3), the reading is carried out in 100 μl of Tris-Krebs in direct fluorescence at 682 nm on a Rubystar machine, and at 520 nm for those bearing fluorescein-5-EX (example 3). […]

T1 sequence (P16455 whole entry, looked up, the tested form may be a part): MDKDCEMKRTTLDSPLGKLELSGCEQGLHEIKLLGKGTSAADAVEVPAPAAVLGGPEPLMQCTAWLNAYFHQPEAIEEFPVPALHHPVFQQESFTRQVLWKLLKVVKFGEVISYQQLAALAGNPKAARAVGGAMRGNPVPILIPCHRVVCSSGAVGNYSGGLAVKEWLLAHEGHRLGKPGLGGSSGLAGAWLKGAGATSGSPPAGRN

Tb(KR)-methylbenzamide-BG [BG-methylbenzamide-Tb(KR)]
EC50: 6.4 nM
